Reference: the NIST ThermoML archive (doi:10.1016/j.jct.2008.01.008)

Experiment: xn = mol fraction of the nth substance listed
Conditions: 298.15 K, 101 kPa, Liquid; for viscosity: Capillary tube (Ostwald / Ubbelohde) method; for speed of sound: Sing-around technique in a fixed-path interferometer

COCC(C)OCC(C)OC (stereo not given) [2-methoxy-1-(2-methoxy-1-methylethoxy)propane] + CO
Conditions | mass density [kg/m3] | speed of sound [m/s] | viscosity [mPa·s]
x1 = 0.0146 | – | – | 0.567
x1 = 0.023 | 799.44 | 1116.2 | –
x1 = 0.0467 | – | – | 0.6092
x1 = 0.0705 | 820.052 | 1138.4 | –
x1 = 0.0738 | – | – | 0.644
x1 = 0.1106 | – | – | 0.6831
x1 = 0.1312 | 838.725 | 1158.2 | –
x1 = 0.1422 | – | – | 0.7112
x1 = 0.1632 | 846.233 | 1166.2 | –
x1 = 0.1646 | – | – | 0.7327
x1 = 0.1725 | – | – | 0.7378
x1 = 0.1988 | – | – | 0.7576
x1 = 0.2058 | – | – | 0.7648
x1 = 0.2094 | 855.089 | 1175.4 | –
x1 = 0.2514 | 861.6 | 1182 | –
x1 = 0.2621 | – | – | 0.8031
x1 = 0.3018 | 867.961 | 1188.1 | –
x1 = 0.3128 | – | – | 0.8321
x1 = 0.3583 | – | – | 0.8527
x1 = 0.3598 | 873.908 | 1193.9 | –
x1 = 0.4 | – | – | 0.871
x1 = 0.4036 | 877.603 | 1197.3 | –
x1 = 0.4549 | 881.296 | 1200.3 | 0.8941
x1 = 0.5022 | 884.189 | 1202.6 | –
x1 = 0.5123 | – | – | 0.9106
x1 = 0.5449 | 886.449 | 1204.3 | –
x1 = 0.5474 | – | – | 0.9206
x1 = 0.6169 | 889.615 | 1206.2 | –
x1 = 0.6261 | – | – | 0.9387
x1 = 0.6494 | 890.83 | 1206.8 | –
x1 = 0.6802 | – | – | 0.9504
x1 = 0.7083 | 892.78 | 1207.7 | –
x1 = 0.7319 | – | – | 0.9598
x1 = 0.7557 | – | – | 0.9634
x1 = 0.756 | 894.087 | 1207.9 | –
x1 = 0.7919 | – | – | 0.9682
x1 = 0.8114 | 895.425 | 1207.8 | –
x1 = 0.8537 | 896.298 | 1207.6 | –
x1 = 0.8565 | – | – | 0.9775
x1 = 0.9047 | 897.217 | 1207 | –
x1 = 0.9185 | – | – | 0.9855
x1 = 0.9327 | – | – | 0.9862
x1 = 0.9364 | 897.708 | 1206.2 | –
x1 = 0.9511 | 897.931 | 1206.2 | –
x1 = 0.9572 | – | – | 0.9881
x1 = 0.974 | – | – | 0.9898

COCC(C)OCC(C)OC (stereo not given) [2-methoxy-1-(2-methoxy-1-methylethoxy)propane] + CCCCCO
Conditions | mass density [kg/m3] | speed of sound [m/s] | viscosity [mPa·s]
x1 = 0.0005 | – | – | 3.49
x1 = 0.0143 | 813.241 | 1274.5 | –
x1 = 0.0225 | – | – | 3.246
x1 = 0.0441 | 817.684 | 1272 | –
x1 = 0.0499 | – | – | 2.986
x1 = 0.0656 | – | – | 2.851
x1 = 0.0946 | – | – | 2.627
x1 = 0.1045 | 826.045 | 1266.6 | –
x1 = 0.1367 | – | – | 2.357
x1 = 0.1523 | 832.101 | 1262.4 | –
x1 = 0.194 | – | – | 2.078
x1 = 0.2149 | 839.509 | 1257.2 | –
x1 = 0.2414 | – | – | 1.891
x1 = 0.2431 | 842.645 | 1255 | –
x1 = 0.2954 | – | – | 1.728
x1 = 0.2986 | 848.553 | 1250.7 | –
x1 = 0.3419 | 852.922 | 1247.5 | –
x1 = 0.3597 | – | – | 1.574
x1 = 0.374 | 856.019 | 1245 | –
x1 = 0.4018 | 858.624 | 1243.2 | –
x1 = 0.4152 | – | – | 1.464
x1 = 0.4303 | – | – | 1.436
x1 = 0.4549 | 863.364 | 1239.5 | –
x1 = 0.468 | – | – | 1.38
x1 = 0.4941 | – | – | 1.345
x1 = 0.5038 | 867.504 | 1236.6 | –
x1 = 0.5334 | 869.911 | 1234.7 | –
x1 = 0.5552 | – | – | 1.274
x1 = 0.591 | – | – | 1.23
x1 = 0.6034 | 875.242 | 1230.3 | –
x1 = 0.6553 | 878.913 | 1226.5 | –
x1 = 0.6625 | – | – | 1.169
x1 = 0.6968 | 881.667 | 1224 | –
x1 = 0.709 | – | – | 1.137
x1 = 0.7445 | – | – | 1.112
x1 = 0.7505 | 885.025 | 1221.2 | –
x1 = 0.796 | – | – | 1.079
x1 = 0.7962 | 887.727 | 1218.6 | –
x1 = 0.8509 | 890.774 | 1215.1 | –
x1 = 0.8555 | – | – | 1.054
x1 = 0.9071 | 893.759 | 1211 | –
x1 = 0.9258 | – | – | 1.02
x1 = 0.9476 | 895.868 | 1208.7 | –
x1 = 0.96 | 896.501 | 1207.8 | –
x1 = 0.9803 | – | – | 0.9997

COCC(C)OCC(C)OC (stereo not given) [2-methoxy-1-(2-methoxy-1-methylethoxy)propane] + CCCCCCCO
Conditions | mass density [kg/m3] | speed of sound [m/s] | viscosity [mPa·s]
x1 = 0.0148 | – | – | 5.604
x1 = 0.0292 | – | – | 5.348
x1 = 0.0609 | 825.134 | 1317.8 | –
x1 = 0.0718 | – | – | 4.664
x1 = 0.1164 | 830.66 | 1309.7 | –
x1 = 0.1196 | – | – | 4.033
x1 = 0.157 | 834.553 | 1303 | –
x1 = 0.1575 | – | – | 3.611
x1 = 0.1902 | – | – | 3.294
x1 = 0.2117 | 839.681 | 1295.5 | –
x1 = 0.2555 | – | – | 3.016
x1 = 0.259 | 843.957 | 1289.2 | –
x1 = 0.2613 | – | – | 2.766
x1 = 0.3119 | – | – | 2.468
x1 = 0.3132 | 848.706 | 1281.7 | –
x1 = 0.3539 | 852.157 | 1276.4 | –
x1 = 0.3616 | – | – | 2.235
x1 = 0.406 | 856.458 | 1270.5 | –
x1 = 0.4129 | – | – | 2.031
x1 = 0.4366 | – | – | 1.949
x1 = 0.4532 | – | – | 1.895
x1 = 0.4533 | 860.298 | 1264.9 | –
x1 = 0.5056 | 864.403 | 1258.8 | –
x1 = 0.511 | – | – | 1.736
x1 = 0.5326 | – | – | 1.673
x1 = 0.552 | 867.948 | 1253.6 | –
x1 = 0.5897 | – | – | 1.543
x1 = 0.5935 | 871.045 | 1249.2 | –
x1 = 0.6316 | 873.865 | 1245.4 | –
x1 = 0.6424 | – | – | 1.432
x1 = 0.7111 | – | – | 1.309
x1 = 0.7137 | 879.729 | 1236.2 | –
x1 = 0.7457 | – | – | 1.25
x1 = 0.7666 | 883.415 | 1231 | –
x1 = 0.7977 | – | – | 1.178
x1 = 0.8059 | 886.098 | 1226.6 | –
x1 = 0.8495 | 889.001 | 1222.1 | –
x1 = 0.8531 | – | – | 1.117
x1 = 0.8927 | – | – | 1.079
x1 = 0.9026 | 892.554 | 1216.1 | –
x1 = 0.9293 | 894.156 | 1213 | –
x1 = 0.9421 | – | – | 1.041
x1 = 0.9527 | 895.635 | 1210.7 | –
x1 = 0.9678 | – | – | 1.02
x1 = 0.9935 | – | – | 0.9994
